Measured values from patent US7473711B2, “Androgen modulators” (Pfizer Inc., priority 2004, dated 2009).
Changes are numbered by the printed parent chain. Where two headings read alike, the source gives them in different places.

What was measured:
[1] = tested on: spinal BMD; conditions: after 7 years of treatment; cited from earlier work
[2] = target: T1, hAR (human androgen receptor) (Homo sapiens, UniProt P10275); test: Competitive binding analysis on hAR extracts with 3H-DHT tracer
T1 construct: made in house; host or cells: baculovirus/Sf9 insect cells (extract)
T1 sequence (P10275 1-920): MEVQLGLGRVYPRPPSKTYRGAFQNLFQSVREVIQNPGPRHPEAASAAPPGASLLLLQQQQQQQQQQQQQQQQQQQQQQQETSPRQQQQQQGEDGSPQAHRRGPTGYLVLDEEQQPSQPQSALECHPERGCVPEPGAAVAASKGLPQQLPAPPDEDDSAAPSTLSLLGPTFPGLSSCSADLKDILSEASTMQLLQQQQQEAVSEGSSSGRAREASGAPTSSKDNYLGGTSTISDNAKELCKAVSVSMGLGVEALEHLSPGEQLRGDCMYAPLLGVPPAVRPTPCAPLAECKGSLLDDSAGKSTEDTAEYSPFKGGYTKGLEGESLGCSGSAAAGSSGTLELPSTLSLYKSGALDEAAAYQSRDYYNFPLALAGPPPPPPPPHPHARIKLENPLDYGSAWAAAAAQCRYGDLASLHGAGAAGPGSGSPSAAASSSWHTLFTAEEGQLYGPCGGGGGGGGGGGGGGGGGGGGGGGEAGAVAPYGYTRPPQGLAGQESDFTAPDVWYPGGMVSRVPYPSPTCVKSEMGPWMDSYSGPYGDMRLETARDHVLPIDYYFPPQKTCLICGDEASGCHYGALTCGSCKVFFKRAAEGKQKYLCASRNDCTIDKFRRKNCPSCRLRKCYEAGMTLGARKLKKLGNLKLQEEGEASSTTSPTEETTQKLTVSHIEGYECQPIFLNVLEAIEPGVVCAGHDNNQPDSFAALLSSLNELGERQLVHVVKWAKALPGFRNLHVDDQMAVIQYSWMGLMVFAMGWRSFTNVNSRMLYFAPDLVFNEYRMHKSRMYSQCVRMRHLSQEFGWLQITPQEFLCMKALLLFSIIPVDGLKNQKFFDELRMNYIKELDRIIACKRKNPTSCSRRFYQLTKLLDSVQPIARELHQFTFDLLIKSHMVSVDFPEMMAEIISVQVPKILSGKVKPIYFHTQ
Experimental: The compounds of Formula I have affinity for the androgen receptor. […] The description below describes how the assay was carried out.
Competitive binding analysis was performed on baculovirus/Sf9 generated hAR extracts in the presence or absence of different concentrations of test agent and a fixed concentration of ^3H-dihydrotestosterone (^3H-DHT) as tracer. This binding assay method is a modification of a protocol previously described (Liao S., et. al. J. Steroid Biochem. 20:11-17 1984). Briefly, progressively decreasing concentrations of compounds are incubated in the presence of hAR extract (Chang et al. P.N.A.S. Vol. 89, pp. […], 1992), hydroxylapatite, and 1 nM ^3H-DHT for one hour at 4° C. Subsequently, the binding reactions are washed three times to completely remove excess unbound ^3H-DHT. hAR bound ^3H-DHT levels are determined in the presence of compounds (i.e. competitive binding) and compared to levels bound when no competitor is present (i.e. maximum binding). Compound binding affinity to the hAR is expressed as the concentration of compound at which one half of the maximum binding is inhibited. Table II below provides the results that were obtained for selected compounds (reported data is the mean of multiple tests as shown below)

[3] = target: T2, androgen receptor in MDA-MB453-MMTV clone 54-19 cells (Homo sapiens, UniProt P10275); test: AR antagonist cell assay (MMTV-luciferase reporter, 100 pM DHT); assay type: cell-based; conditions: MDA-MB453-MMTV clone 54-19, inhibition of 100 pM DHT induced luciferase, 17 hr; mean of multiple tests; read-out: AR Cell IC50
T2 sequence (P10275 1-920 Q868H): T1 sequence (P10275 1-920) with Q868H
Experimental: The compounds ability to antagonize the effects of androgen on the androgen receptor were determined in a whole cell assay as described immediately below.
Experimental Procedure for AR Antagonist Cell Assay
Cell line: MDA-MB453-MMTV clone 54-19. This cell line is a stable transfected cell line with MDA-MB453 cell background (a human breast tumor cell line expressing androgen receptor). A MMTV minimal promoter containing ARE was first cloned in front of a firefly luciferase reporter gene. Then the cascade was cloned into transfection vector pUV120puro. Electroporation method was used for transfecting MDA-MB-453 cell. Puromycin resistant stable cell line was selected. Cell Culture Media and Reagents:
Culture medium: DMEM (high glucose, Gibco cat #: 11960-044), 10% FBS, and 1% L-glutamine
Plating medium: DMEM (phenol red free), 10% charcoal treated HyClone serum, 1% L-glutamine
Assay medium: DMEM (phenol red free), 1% charcoal treated HyClone serum, 1% L-glutamine, and 1% penicillin/streptomycin
3X luciferase buffer: 2% beta-mercaptoethanol, 0.6% ATP, 0.0135% luciferine in cell lysis buffer
• 1. Cells are maintained in culture medium, splitting cells when they reach 80-90% confluence • 2. To test compounds, 10,000 cells/well are plated to opaque 96 cell culture plate in 100 ul/well plating medium, culture for overnight at 37° C. in cell culture incubator • 3. Carefully remove plating medium, then add 80 ul/well of pre-warmed assay medium, add 10 ul/well testing compound (final concentration at) 1000 nM, 200 nM, 40 nM, 8 nM, 1.6 nM, and 0.32 nM), incubate at 37° C. for 30 minutes • 4. Add 10 ul/well freshly prepared DHT (final concentration at 100 pM) to each well, incubate at 37° C. for 17 hr (overnight) • 5. Add 50 ul/well 3X luciferase buffer, incubate at room temperature for 5 minutes, then count on Luminometer
The fold induction over background by 100 pM DHT in the absence of testing compounds is standardized as 100% and experimental result is expressed as percentage of inhibition by testing compounds.
The results are reported as the mean of multiple tests as described below (the numbers of tests are indicated in the footnote). N.D. denotes that the compound was not tested.

[4] = baculovirus/Sf9 hAR extract, 1 nM 3H-DHT, one hour at 4° C, mean of multiple tests, read-out: AR Binding IC50

SMILES	increase in spinal BMD [1]	IC50 [2]	IC50 [3]	IC50 [2, 4]
NCCCC(O)(P(=O)(O)O)P(=O)(O)O [alendronate]	≤ 11%			
C[C@@H](C[C@H](C)Oc1ccc(C#N)c(C(F)(F)F)c1)Oc1ccc(C#N)c(C(F)(F)F)c1 (stereo in doubt) [Example 20, 4,4′-[(2S,4S)-Pentane-2,4-diylbis(oxy)]bis[2-(trifluoromethyl)benzonitrile]]		17 nM	159 nM	
CC(COc1ccc(C#N)c(C(F)(F)F)c1)COc1ccc(C#N)c(C(F)(F)F)c1 [Example 12, 4,4′-[(2-Methylpropane-1,3-diyl)bis(oxy)]bis[2-(trifluoromethyl)benzonitrile]]			> 1000 nM	233 nM
C[C@H](Oc1ccc(C#N)c(C(F)(F)F)c1)[C@H](C)Oc1ccc(C#N)c(C(F)(F)F)c1 [Example 1, 4,4′-[(2S,3S)-Butane-2,3-diylbis(oxy)]bis[2-(trifluoromethyl)benzonitrile]]			531 nM	191 nM
C=CC(COc1ccc(C#N)c(C(F)(F)F)c1)Oc1ccc(C#N)c(C(F)(F)F)c1 (centres unmarked) [Example 3, 4,4′-[But-1-ene-3,4-diylbis(oxy)]bis[2-(trifluoromethyl)benzonitrile]]			457 nM	115 nM
CC(C)NCC(COc1ccc(C#N)c(C(F)(F)F)c1)Oc1ccc(C#N)c(C(F)(F)F)c1 (centres unmarked) [Example 7]			> 1000 nM	319 nM
N#Cc1ccc(OCCCOc2ccc(C#N)c(C(F)(F)F)c2)cc1C(F)(F)F [Example 11, 4,4′-[Propane-1,3-diylbis(oxy)]bis[2-(trifluoromethyl)benzonitrile]]			> 1000 nM	165 nM
CC(CCC(C)Oc1ccc(C#N)c(C(F)(F)F)c1)Oc1ccc(C#N)c(C(F)(F)F)c1 (centres unmarked) [Example 22, 4,4′-[Hexane-2,5-diylbis(oxy)]bis[2-(trifluoromethyl)benzonitrile]]			322 nM	293 nM
N#Cc1ccc(O[C@H](CO)COc2ccccc2)cc1C(F)(F)F [Example 29, (1R)-4-(1-Hydroxymethyl-2-phenoxy-ethoxy)-2-trifluoromethyl-benzonitrile]		44 nM	117 nM	
CCCC(COc1ccc(C#N)c(C(F)(F)F)c1)Oc1ccc(C#N)c(C(F)(F)F)c1 (centres unmarked) [Example 4, 4,4′-[Pentane-1,2-diylbis(oxy)]bis[2-(trifluoromethyl)benzonitrile]]			> 1000 nM	630 nM
CCCC(CCCOc1ccc(C#N)c(C(F)(F)F)c1)Oc1ccc(C#N)c(C(F)(F)F)c1 (centres unmarked) [Example 21, 4,4′-[Heptane-1,4-diylbis(oxy)]bis[2-(trifluoromethyl)benzonitrile]]			> 1000 nM	233 nM
COC[C@@H](COc1ccccc1)Oc1ccc(C#N)c(C(F)(F)F)c1 [Example 31, (1S)-4-(1-Methoxymethyl-2-phenoxy-ethoxy)-2-trifluoromethyl-benzonitrile]		46 nM	126 nM	
